{
  "source": "patent US9765022B2",
  "about": "“Disulfide compounds for delivery of pharmaceutical agents” (Tufts University, priority 2013, dated 2017)",
  "tested_on": "4T1-12B breast tumors",
  "test": "In vivo cancer treatment, tumor growth inhibition",
  "set-up": "species or system BALB/c mice",
  "settings": "tail-vein injection every three days, 5.5 mg/kg lipid and 330 μg/kg saporin",
  "protocol": "Composition 31 (i.e., containing 1-O16B and saporin) and Composition 32 (i.e., containing 1-O18B and saporin) were tested for in vivo inhibiting tumor growth following the procedure described below. More specifically, BALB/c mice bearing 4T1-12B breast tumors were developed from a 4T1-12B cell suspension in DMEM supplemented with 10% FBS at a concentration of 10^7 cells/mL. An aliquot (100 μL) of the cell suspension was injected into the mammary fat pad of 4-6 week-old female BALB/c mice. The mice were sorted into four groups randomly (n=7 for treatment group, n=5 for control groups) seven days after the injection. The mice were injected through tail-vein every three days. For the treatment group, each mouse was injected with 5.5 mg/kg of 1-O16B or 1-O18B and 330 μg/kg of saporin. Tumor volumes were measured every three days.\nPBS without 1-O16B, 1-O18B, and saporin was also injected as a control. Comparative studies were also conducted using saporin in PBS without 1-O16B and 1-O18B.",
  "data": [
    {"substance": "saporin", "values": [
      {"measurement": "tumor size", "setting": "Day 16", "result": "more than 120 mm^3"},
      {"measurement": "tumor size", "setting": "Day 22", "result": "more than 250 mm^3"}
    ]}
  ]
}
